Peptide text beside a SMILES is read from it. * marks the point of attachment. 5FAM = O=C1OC2(c3ccc(O)cc3Oc3cc(O)ccc32)c2ccc(C(=O)*)cc21
Key:
hCMEC/D3 cells [1] = test: Cell uptake by flow cytometry; format: cell-based, human; settings: 5 µM, foetal bovine serum, 16 h, 37 °C (Supplementary Fig. 12)
Protocol: Peptide internalisation was measured by flow cytometry (FACS ArrayTM Cell Analysis, Becton, Dickinson and Company, NJ, USA). Cells (1 × 10^5 cm^−2) were seeded on 24-well plates and grown 1 day at 37 °C and 5% CO2 in order to reach 60–70% confluence. The cells were washed 3 times with pre-heated PBS. The uptake studies were initiated by adding 500 µL of 5 µM fluorescence-labelled peptides (diluted in cell medium containing with different serum concentration). Serum concentration in incubation varied from 5 to 20% (v/v). […] A total of 10,000 cells were analysed by flow cytometry.

hCMEC/D3 cells [2] = test: Uptake with internalisation inhibitors; settings: 37 °C
Protocol: The medium was then removed and replaced with a fresh medium containing NLCs and the corresponding inhibitor. After 8 h of incubation at 37 °C, cells were washed three times with cell medium and analysed by FACS. Cell viability at the end of each experiment was >90% as determined by Trypan Blue exclusion test. The following inhibitors were used: 2-deoxy-D-glucose (1 mM)/sodium azide (1 mM) as energy-dependent inhibitors, worthmanin (10 μM) as macropinocytosis inhibitor, chloropromazine (30 μM) as clathrin-dependent endocytosis inhibitor, N-ethylmaleimide (5 μM) as caveolae-dependent endocytosis and transcytosis inhibitor and indomethacin (200 μM) as caveolae-dependent endocytosis inhibitor.

With CC[C@H](C)[C@H](NC(=O)[C@H](CC(N)=O)NC(=O)[C@H](Cc1c[nH]cn1)NC(=O)[C@@H](NC(=O)[C@@H]1CCCN1C(=O)[C@H](CCCNC(=N)N)NC(=O)[C@H](Cc1ccc(O)cc1)NC(=O)CNC(=O)[C@H](CS)NC(=O)c1ccc2c(c1)C(=O)OC21c2ccc(O)cc2Oc2cc(O)ccc21)C(C)C)C(=O)N[C@@H](CCCNC(=N)N)C(=O)NCC(=O)N[C@@H](Cc1c[nH]cn1)C(=O)N[C@@H](Cc1c[nH]c2ccccc12)C(=O)N[C@@H](C)C(=O)N1CCC[C@H]1C(=O)NCC(=O)O [FAM-CGY] (5FAM-CGYRPVHNIRGHWAPG-OH) the “effect of serum proteins on association with endothelial cells” value (hCMEC/D3 cells [1]) was “not affected by the presence of serum proteins”, the “Mean flouresence (%), uptake vs Control (no inhibitor)” value (from here on “Mean flouresence (%) … (no inhibitor)”) (hCMEC/D3 cells [2]; CPZ (chloropromazine 30 μM), 8 h, replicate 1) was 50.26% and the “Mean flouresence (%) … (no inhibitor)” value (hCMEC/D3 cells [2]; CPZ (chloropromazine 30 μM), 8 h, replicate 2) was 42.26%. The “Mean flouresence (%) … (no inhibitor)” value (hCMEC/D3 cells [2]; CPZ (chloropromazine 30 μM), 8 h, replicate 3) was 56.45%, the “Mean flouresence (%) … (no inhibitor)” value (hCMEC/D3 cells [2]; DOG+NaN3 (1 mM/1 mM), 8 h, replicate 2) was 62.26% and the “Mean flouresence (%) … (no inhibitor)” value (hCMEC/D3 cells [2]; DOG+NaN3 (1 mM/1 mM), 8 h, replicate 3) was 36.09%. For the same compound, the “Mean flouresence (%) … (no inhibitor)” value (hCMEC/D3 cells [2]; DOG+NaN3 (2-deoxy-D-glucose 1 mM/sodium azide 1 mM), 8 h, replicate 1) was 44.27%, the “Mean flouresence (%) … (no inhibitor)” value (hCMEC/D3 cells [2]; IMC (indomethacin 200 μM), 1 h pre-treatment + 8 h, FACS, FAM-CGY NLC 5 µM or Texas Red-transferrin 5 µg per well, replicate 1) was 66.27% and the “Mean flouresence (%) … (no inhibitor)” value (hCMEC/D3 cells [2]; IMC (indomethacin 200 μM), 8 h, replicate 2) was 72.37%. The “Mean flouresence (%) … (no inhibitor)” value (hCMEC/D3 cells [2]; IMC (indomethacin 200 μM), 8 h, replicate 3) was 72.43%, the “Mean flouresence (%) … (no inhibitor)” value (hCMEC/D3 cells [2]; NEM (N-ethylmaleimide 5 μM), 8 h, replicate 1) was 56.24% and the “Mean flouresence (%) … (no inhibitor)” value (hCMEC/D3 cells [2]; NEM (N-ethylmaleimide 5 μM), 8 h, replicate 2) was 70.26%. The “Mean flouresence (%) … (no inhibitor)” value (hCMEC/D3 cells [2]; NEM (N-ethylmaleimide 5 μM), 8 h, replicate 3) was 66.59%, the “Mean flouresence (%) … (no inhibitor)” value (hCMEC/D3 cells [2]; WOR (worthmanin 10 μM), 8 h, replicate 1) was 73.57% and the “Mean flouresence (%) … (no inhibitor)” value (hCMEC/D3 cells [2]; WOR (worthmanin 10 μM), 8 h, replicate 2) was 75.56%. The “Mean flouresence (%) … (no inhibitor)” value (hCMEC/D3 cells [2]; WOR (worthmanin 10 μM), 8 h, replicate 3) was 60.92%.

Reference: article PMC6789111, “Crossing the blood-brain-barrier with nanoligand drug carriers self-assembled from a phage display peptide” (Nature Communications, 2019)
